According to the NIST ThermoML archive (doi:10.1016/j.jct.2013.01.032):
± gives the expanded uncertainty stated by the source.

How the values were obtained:
[1] = osmotic coefficient (dimensionless); mn = molality of the nth substance listed, in mol/kg; conditions: 323.15 K, Liquid, Knauer Osmometer
[2] = mn = molality of the nth substance listed, in mol/kg; conditions: 101 kPa, Liquid; for speed of sound: Sing-around technique in a fixed-path interferometer; for mass density: Vibrating tube method

CCCCn1cc[n+](C)c1.O=S(=O)([O-])C(F)(F)F [1-butyl-3-methylimidazolium trifluoromethanesulfonate] + CCCCO
[1]
Conditions | osmotic coefficient
m1 = 0.0481 | 0.84 ± 0.015
m1 = 0.1053 | 0.618 ± 0.018
m1 = 0.2108 | 0.512 ± 0.021
m1 = 0.3131 | 0.457 ± 0.023
m1 = 0.4049 | 0.425 ± 0.024
m1 = 0.4947 | 0.403 ± 0.024
m1 = 0.8149 | 0.36 ± 0.026
m1 = 1.216 | 0.323 ± 0.027
m1 = 1.613 | 0.301 ± 0.027
m1 = 2.036 | 0.28 ± 0.028
m1 = 2.425 | 0.268 ± 0.029
m1 = 2.82 | 0.27 ± 0.028
m1 = 3.311 | 0.259 ± 0.029

[2]
Conditions | mass density, 293.15 K [kg/m3] | mass density, 308.15 K [kg/m3] | mass density, 323.15 K [kg/m3] | speed of sound, 293.15 K [m/s] | speed of sound, 308.15 K [m/s] | speed of sound, 323.15 K [m/s]
m1 = 0.052 | 814.31 ± 0.22 | 802.84 ± 0.23 | 790.99 ± 0.23 | 1257.8 ± 0.8 | 1207.6 ± 0.8 | 1158.1 ± 0.8
m1 = 0.101 | 818.63 ± 0.22 | 807.15 ± 0.22 | 795.31 ± 0.23 | 1258 ± 0.8 | 1208 ± 0.8 | 1158.8 ± 0.8
m1 = 0.153 | 823.08 ± 0.22 | 811.61 ± 0.22 | 799.78 ± 0.22 | 1257.7 ± 0.8 | 1208.3 ± 0.8 | 1159.4 ± 0.8
m1 = 0.206 | 827.53 ± 0.21 | 816.05 ± 0.22 | 804.22 ± 0.22 | 1257.9 ± 0.8 | 1208.8 ± 0.8 | 1160.1 ± 0.8
m1 = 0.25 | 831.16 ± 0.21 | 819.67 ± 0.21 | 807.85 ± 0.22 | 1258 ± 0.8 | 1209.1 ± 0.8 | 1160.6 ± 0.8
m1 = 0.504 | 851.11 ± 0.2 | 839.58 ± 0.2 | 827.75 ± 0.2 | 1258 ± 0.9 | 1210.5 ± 0.8 | 1163.2 ± 0.8
m1 = 0.756 | 869.28 ± 0.18 | 857.7 ± 0.19 | 845.85 ± 0.19 | 1259.2 ± 0.9 | 1212.1 ± 0.9 | 1165.7 ± 0.8
m1 = 1.009 | 886.03 ± 0.15 | 874.41 ± 0.18 | 862.55 ± 0.21 | 1260.2 ± 0.9 | 1213.9 ± 0.9 | 1168.4 ± 0.8
m1 = 1.262 | 901.54 ± 0.16 | 889.89 ± 0.17 | 878.01 ± 0.17 | 1261 ± 0.9 | 1215.8 ± 0.9 | 1171 ± 0.9
m1 = 1.508 | 915.57 ± 0.16 | 903.89 ± 0.16 | 892 ± 0.17 | 1262.4 ± 0.9 | 1217.9 ± 0.9 | 1173.7 ± 0.9
m1 = 1.758 | 928.83 ± 0.15 | 917.11 ± 0.16 | 905.21 ± 0.16 | 1263.9 ± 0.9 | 1219.9 ± 0.9 | 1176.4 ± 0.9
m1 = 1.989 | 940.32 ± 0.15 | 928.56 ± 0.15 | 916.64 ± 0.15 | 1265.8 ± 0.9 | 1222 ± 0.9 | 1179 ± 0.9
m1 = 2.486 | 962.85 ± 0.14 | 951.04 ± 0.15 | 939.1 ± 0.15 | 1269.5 ± 1 | 1226.6 ± 0.9 | 1184.5 ± 0.9
m1 = 2.979 | 982.55 ± 0.14 | 970.73 ± 0.14 | 958.77 ± 0.15 | 1273.1 ± 1 | 1231.2 ± 1 | 1189.8 ± 1

CCCCn1cc[n+](C)c1.O=S(=O)([O-])C(F)(F)F [1-butyl-3-methylimidazolium trifluoromethanesulfonate] + CCCO
[1]
Conditions | osmotic coefficient
m1 = 0.0299 | 0.906 ± 0.016
m1 = 0.0473 | 0.817 ± 0.014
m1 = 0.0849 | 0.775 ± 0.015
m1 = 0.0975 | 0.755 ± 0.015
m1 = 0.2019 | 0.66 ± 0.017
m1 = 0.2968 | 0.612 ± 0.018
m1 = 0.4022 | 0.575 ± 0.019
m1 = 0.5062 | 0.549 ± 0.02
m1 = 0.8045 | 0.494 ± 0.022
m1 = 1.206 | 0.445 ± 0.023
m1 = 1.64 | 0.412 ± 0.024
m1 = 2.044 | 0.39 ± 0.025
m1 = 2.44 | 0.378 ± 0.025
m1 = 2.829 | 0.361 ± 0.026
m1 = 3.316 | 0.34 ± 0.026

[2]
Conditions | mass density, 293.15 K [kg/m3] | mass density, 308.15 K [kg/m3] | mass density, 323.15 K [kg/m3] | speed of sound, 293.15 K [m/s] | speed of sound, 308.15 K [m/s] | speed of sound, 323.15 K [m/s]
m1 = 0.05 | 808.59 ± 0.23 | 796.51 ± 0.23 | 784.03 ± 0.23 | 1225.2 ± 0.8 | 1174.1 ± 0.8 | 1123.8 ± 0.8
m1 = 0.101 | 813.12 ± 0.22 | 801.04 ± 0.23 | 788.57 ± 0.23 | 1225.9 ± 0.8 | 1175.1 ± 0.8 | 1125.1 ± 0.8
m1 = 0.15 | 817.38 ± 0.22 | 805.31 ± 0.22 | 792.86 ± 0.23 | 1226.2 ± 0.8 | 1176 ± 0.8 | 1126.3 ± 0.8
m1 = 0.2 | 821.64 ± 0.19 | 809.57 ± 0.22 | 797.12 ± 0.16 | 1226.7 ± 0.8 | 1176.8 ± 0.8 | 1127.3 ± 0.8
m1 = 0.25 | 825.82 ± 0.21 | 813.75 ± 0.21 | 801.31 ± 0.22 | 1227.4 ± 0.8 | 1177.6 ± 0.8 | 1128.4 ± 0.8
m1 = 0.758 | 864.71 ± 0.19 | 852.6 ± 0.2 | 840.18 ± 0.2 | 1232.4 ± 0.9 | 1184.8 ± 0.8 | 1137.7 ± 0.8
m1 = 1.004 | 881.36 ± 0.18 | 869.23 ± 0.18 | 856.81 ± 0.18 | 1235 ± 0.9 | 1188.2 ± 0.9 | 1141.9 ± 0.8
m1 = 1.258 | 897.18 ± 0.17 | 885.04 ± 0.17 | 872.62 ± 0.18 | 1237.6 ± 0.9 | 1191.7 ± 0.9 | 1146.2 ± 0.8
m1 = 1.524 | 912.6 ± 0.16 | 900.41 ± 0.16 | 887.99 ± 0.17 | 1241.2 ± 0.9 | 1195.4 ± 0.9 | 1150.5 ± 0.9
m1 = 1.771 | 925.96 ± 0.15 | 913.75 ± 0.16 | 901.33 ± 0.16 | 1243.6 ± 0.9 | 1198.7 ± 0.9 | 1154.5 ± 0.9
m1 = 2.021 | 938.44 ± 0.15 | 926.22 ± 0.15 | 913.81 ± 0.16 | 1246.4 ± 0.9 | 1202 ± 0.9 | 1158.4 ± 0.9
m1 = 2.517 | 960.93 ± 0.14 | 948.73 ± 0.15 | 936.31 ± 0.15 | 1251.9 ± 1 | 1208.4 ± 0.9 | 1165.7 ± 0.9
m1 = 3.011 | 981.02 ± 0.14 | 968.77 ± 0.15 | 956.37 ± 0.15 | 1257.1 ± 1 | 1214.8 ± 1 | 1172.9 ± 0.9
